Assay results: US20120095036A1, “NOVEL SUBSTITUTED INDAZOLE AND AZA-INDAZOLE DERIVATIVES AS GAMMA SECRETASE MODULATORS” (priority 2009, published 2012)

How the values were obtained:
Aβ42 [1] = assay: Method 2: Aβ42 Alphalisa on supernatant of SKNBE2 cells carrying APP 695 wild type; type: cell-based; details: SKNBE2 cells APP 695 wild type, overnight
Experimental: (§1) Screening was carried out using SKNBE2 cells carrying the APP 695—wild type, grown in Dulbecco's Modified Eagle's Medium/Nutrient mixture F-12 (DMEM/NUT-mix F-12) (HAM) provided by Invitrogen (cat no. 10371-029) containing 5% Serum/Fe supplemented with 1% non-essential amino acids, 1-glutamine 2 mM, Hepes 15 mM, penicillin 50 U/ml (units/ml) en streptomycin 50 μg/ml. Cells were grown to near confluency.
(§2) The screening was performed using a modification of the assay as described in Citron et al (1997) Nature Medicine 3: 67. Briefly, cells were plated in a 384-well plate at 10^4 cells/well in Ultraculture (Lonza, BE12-725F) supplemented with 1% glutamine (Invitrogen, 25030-024), 1% non-essential amino acid (NEAA), penicillin 50 U/ml en streptomycin 50 μg/ml in the presence of test compound at different test concentrations. The cell/compound mixture was incubated overnight at 37° C., 5% CO2, The next day the media were assayed by two sandwich immuno-assays, for Aβ42 and Aβtotal.
(§3) Aβtotal and Aβ42 concentrations were quantified in the cell supernatant using the Aphalisa technology (Perkin Elmer). Alphalisa is a sandwich assay using biotinylated antibody attached to streptavidin coated donorbeads and antibody conjugated to acceptor beads. In the presence of antigen, the beads come into close proximity. The excitation of the donor beads provokes the release of singlet oxygen molecules that trigger a cascade of energy transfer in the acceptor beads, resulting in light emission. To quantify the amount of Aβ42 in the cell supernatant, monoclonal antibody specific to the C-terminus of Aβ42 (JRF/cAβ42/26) was coupled to the receptor beads and biotinylated antibody specific to the N-terminus of AB (JRF/AβN/25) was used to react with the donor beads. To quantify the amount of Aβtotal in the cell supernatant, monoclonal antibody specific to the N-terminus of AB (JRF/AβN/25) was coupled to the receptor beads and biotinylated antibody specific to the mid region of Aβ (biotinylated 4G8) was used to react with the donor beads.
(§4) To obtain the values reported in Table 3b, the data were calculated as percentage of the maximum amount of amyloid Beta 42 measured in the absence of the test compound. The sigmoidal dose response curves were analyzed using non-linear regression analysis with percentage of the control plotted against the log concentration of the compound. A 4-parameter equation was used to determine the IC50.

Aβtotal [2] = assay: Method 2: Aβtotal Alphalisa on supernatant of SKNBE2 cells carrying APP 695 wild type; type: cell-based; details: SKNBE2 cells APP 695 wild type, overnight
Experimental: as §1, §2, §3, §4

Aβ42 [3] = assay: Method 1: Aβ42 sandwich ELISA on media of SKNBE2 cells carrying APP 695 wild type (γ-secretase-modulating activity); type: cell-based; details: SKNBE2 cells APP 695 wild type, 18 hours
Experimental: as §1, with “Gibco” for “Invitrogen”, “31330-38)” for “10371-029)”, “acids.” for “acids, 1-glutamine 2 mM, Hepes 15 mM, penicillin 50 U/ml (units/ml) en streptomycin 50 μg/ml.”
(§5) The screening was performed using the assay as described in Citron et al (1997) Nature Medicine 3: 67. Briefly, cells were plated in a 96-well plate at about 10^5 cells/ml one day prior to addition of compounds. Compounds were added to the cells in Ultraculture (Lonza, BE12-725F) supplemented with 1% glutamine (Invitrogen, 25030-024) for 18 hours. The media were assayed by two sandwich ELISAs, for Aβ42 and Aβtotal. Toxicity of the compounds was assayed by WST-1 cell proliferation reagent (Roche, 1 644 807) according to the manufacturer's protocol.
To quantify the amount of Aβ42 in the cell supernatant, commercially available Enzyme-Linked-Immunosorbent-Assay (ELISA) kits were used (Innotest® β-Amyloid(1-42), Innogenetics N.V., Ghent, Belgium). The Aβ42 ELISA was performed essentially according to the manufacturer's protocol. Briefly, the standards (dilutions of synthetic A131-42) were prepared in polypropylene Eppendorf with final concentrations of 8000 down to […] (½ dilution step). Samples, standards and blanks (100 μl) were added to the anti-Aβ42-coated plate supplied with the kit (the capture antibody selectively recognizes the C-terminal end of the antigen). The plate was allowed to incubate 3 h at 25° C. in order to allow formation of the antibody-amyloid complex. Following this incubation and subsequent wash steps a selective anti-A13-antibody conjugate (biotinylated 3D6) was added and incubated for a minimum of 1 hour in order to allow formation of the antibody-Amyloid-antibody-complex. After incubation and appropriate wash steps, a Streptavidine-Peroxidase-Conjugate was added, followed 30 minutes later by an addition of 3,3′,5,5′-tetramethylbenzidine (TMB)/peroxide mixture, resulting in the conversion of the substrate into a coloured product. This reaction was stopped by the addition of sulfuric acid (0.9 N) and the colour intensity was measured by means of photometry with an ELISA-reader with a 450 nm filter.
(§6) To obtain the values reported in Table 3a, the sigmoidal dose response curves were analysed by computerised curve-fitting, with percent of inhibition plotted against compound concentration. A 4-parameter equation (model 205) in XLfit was used to determine the IC50. The top and the bottom of the curve were fixed to 100 and 0, respectively, and the hill slope was fixed to 1. The IC50 represents the concentration of a compound that is required for inhibiting a biological effect by 50% (Here, it is the concentration where Aβ peptide level is reduced by 50%).

Aβtotal [4] = assay: Method 1: Aβtotal sandwich ELISA on media of SKNBE2 cells carrying APP 695 wild type; type: cell-based; details: SKNBE2 cells APP 695 wild type, 18 hours
Experimental: as §1, with “Gibco” for “Invitrogen”, “31330-38)” for “10371-029)”, “acids.” for “acids, 1-glutamine 2 mM, Hepes 15 mM, penicillin 50 U/ml (units/ml) en streptomycin 50 μg/ml.”
as §5
To quantify the amount of Aβtotal in the cell supernatant, samples and standards were added to a 6E10-coated plate. The plate was allowed to incubate overnight at 4° C. in order to allow formation of the antibody-amyloid complex. Following this incubation and subsequent wash steps a selective anti-AB-antibody conjugate (biotinylated 4G8) was added and incubated for a minimum of 1 hour in order to allow formation of the antibody-Amyloid-antibody-complex. After incubation and appropriate wash steps, a Streptavidine-Peroxidase-Conjugate was added, followed 30 minutes later by an addition of Quanta Blu fluorogenic peroxidase substrate according to the manufacturer's instructions (Pierce Corp., Rockford, Il).
as §6

Compound	IC50 (Aβ42 [1]; Homo sapiens)	IC50 (Aβtotal [2]; Homo sapiens)	IC50 (Aβ42 [3]; Homo sapiens)	IC50 (Aβtotal [4]; Homo sapiens)	melting point	IC50 (Aβ42 [1])	IC50 (Aβtotal [2])	IC50 (Aβ42 [3])	IC50 (Aβtotal [4])
COc1cc(Nc2cccc3c(C)n(-c4ccc(F)cc4F)nc23)ccc1-n1cnc(C)c1 [Compound 16, 2-(2,4-difluorophenyl)-N-[3-methoxy-4-(4-methyl-1H-imidazol-1-yl)phenyl]-3-methyl-2H-indazol-7-amine]	54 nM	8510 nM	190 nM	> 3000 nM	–	–	–	–	–
COc1cc(Nc2cccc3cn(CC(F)(F)F)nc23)ccc1-n1cnc(C)n1 [Compound 18, N-[3-methoxy-4-(3-methyl-1H-1,2,4-triazol-1-yl)phenyl]-2-(2,2,2-trifluoroethyl)-2H-indazol-7-amine]	331 nM	> 10000 nM	479 nM	> 3000 nM	–	–	–	–	–
COc1cccc(-n2cc3cccc(Nc4ccc(-n5cnc(C)n5)c(OC)c4)c3n2)c1 [Compound 19, N-[3-methoxy-4-(3-methyl-1H-1,2,4-triazol-1-yl)phenyl]-2-(3-methoxyphenyl)-2H-indazol-7-amine]	123 nM	3020 nM	126 nM	> 3000 nM	–	–	–	–	–
CCOc1cc(C)c(-n2nc3c(Nc4ccc(-n5cnc(C)n5)c(OC)c4)cccc3c2C)cc1C(C)C [Compound 20, 2-[4-ethoxy-2-methyl-5-(1-methylethyl)phenyl]-N-[3-methoxy-4-(3-methyl-1H-1,2,4-triazol-1-yl)phenyl]-3-methyl-2H-indazol-7-amine]	59 nM	6030 nM	67 nM	> 3000 nM	–	–	–	–	–
COc1cc(Nc2nc(C)cc3cn(CC(F)(F)F)nc23)ccc1-n1cnc(C)n1 [Compound 21, N-[3-methoxy-4-(3-methyl-1H-1,2,4-triazol-1-yl)phenyl]-5-methyl-2-(2,2,2-trifluoroethyl)-2H-pyrazolo[3,4-c]pyridin-7-amine]	> 3000 nM	> 3000 nM	–	–	203.4 °C	–	–	–	–
COc1cccc(-n2nc3c(Nc4ccc(-c5ocnc5C)c(OC)c4)cccc3c2C)c1 [Compound 39, N-[3-methoxy-4-(4-methyl-5-oxazolyl)phenyl]-2-(3-methoxyphenyl)-3-methyl-2H-indazol-7-amine .1.9HCl]	–	–	–	–	–	30 nM	> 10000 nM	29 nM	> 3000 nM
COc1cc(Nc2nc(C)cc3cn(CC(F)(F)F)nc23)ccc1-c1cnc(C)o1 [Compound 41, N-[3-methoxy-4-(2-methyl-5-oxazolyl)phenyl]-5-methyl-2-(2,2,2-trifluoroethyl)-2H-pyrazolo[3,4-c]pyridin-7-amine]	> 3000 nM	> 3000 nM	–	–	213.8 °C	–	–	–	–
Cc1ncoc1-c1ccc(Nc2cccc3c(C)n(-c4ccc(F)cc4)nc23)cn1 [Compound 46, 2-(4-fluorophenyl)-3-methyl-N-[6-(4-methyl-5-oxazolyl)-3-pyridinyl]-2H-indazol-7-amine]	66 nM	4270 nM	199 nM	> 3000 nM	–	–	–	–	–
COc1cc(Nc2cc(C)nc3cn(CC(F)(F)F)nc23)ccc1-c1cnc(C)o1 [Compound 51, N-[3-methoxy-4-(2-methyl-5-oxazolyl)phenyl]-5-methyl-2-(2,2,2-trifluoroethyl)-2H-pyrazolo[4,3-b]pyridin-7-amine]	234 nM	5250 nM	–	–	211.5 °C	–	–	–	–
Cc1cn(-c2ccc(Nc3cccc4cn(CC(F)(F)F)nc34)cc2F)cn1 [Compound 52, N-[3-fluoro-4-(4-methyl-1H-imidazol-1-yl)phenyl]-2-(2,2,2-trifluoroethyl)-2H-indazol-7-amine]	339 nM	> 10000 nM	–	–	144.9 °C	–	–	–	–

More lines, now with the values ahead:

IC50 (Aβ42 [1]; Homo sapiens)	IC50 (Aβtotal [2]; Homo sapiens)	IC50 (Aβ42 [3]; Homo sapiens)	IC50 (Aβtotal [4]; Homo sapiens)	melting point	IC50 (Aβ42 [1])	IC50 (Aβtotal [2])	IC50 (Aβ42 [3])	IC50 (Aβtotal [4])	Compound
> 3000 nM	> 3000 nM	–	–	168.7 °C	–	–	–	–	Cc1ncc(-c2ccc(Nc3cccc4cn(C)nc34)cc2)o1 [Compound 24, 2-methyl-N-[4-(2-methyl-5-oxazolyl)phenyl]-2H-indazol-7-amine]
–	–	–	–	–	1260 nM	49000 nM	1740 nM	> 150000 nM	Cc1ncc(-c2ccc(Nc3cccc4cn(CC5CC5)nc34)cc2)o1 [Compound 25, 2-(cyclopropylmethyl)-N-[4-(2-methyl-5-oxazolyl)phenyl]-2H-indazol-7-amine .2HCl]
> 3000 nM	–	–	–	224.8 °C	–	–	–	–	Cc1ncc(-c2ccc(Nc3cccc4cn(C5CCOCC5)nc34)cc2)o1 [Compound 28, N-[4-(2-methyl-5-oxazolyl)phenyl]-2-(tetrahydro-2H-pyran-4-yl)-2H-indazol-7-amine]
129 nM	> 10000 nM	127 nM	> 3000 nM	–	–	–	–	–	CCOc1cc(C)c(-n2nc3c(Nc4ccc(-c5cnc(C)o5)cc4)cccc3c2C)cc1C(C)C [Compound 30, 2-[4-ethoxy-2-methyl-5-(1-methylethyl)phenyl]-3-methyl-N-[4-(2-methyl-5-oxazolyl)phenyl]-2H-indazol-7-amine]
–	–	–	–	–	37 nM	> 10000 nM	126 nM	> 3000 nM	Cc1ncc(-c2ccc(Nc3cccc4c(C)n(-c5ccc(F)cc5)nc34)cc2)o1 [Compound 31, 2-(4-fluorophenyl)-3-methyl-N-[4-(2-methyl-5-oxazolyl)phenyl]-2H-indazol-7-amine .1.5HCl]
166 nM	> 10000 nM	–	–	139.9 °C	–	–	–	–	Cc1ncc(-c2ccc(Nc3cccc4c(C)n(-c5ccc(F)cc5F)nc34)cc2)o1 [Compound 33, 2-(2,4-difluorophenyl)-3-methyl-N-[4-(2-methyl-5-oxazolyl)phenyl]-2H-indazol-7-amine]
–	–	–	–	–	> 3000 nM	> 3000 nM	2660 nM	> 3000 nM	COc1cc(Nc2cccc3cn(CC4CC4)nc23)ccc1-c1ocnc1C [Compound 37, 2-(cyclopropylmethyl)-N-[3-methoxy-4-(4-methyl-5-oxazolyl)phenyl]-2H-indazol-7-amine .2HCl]
> 3000 nM	> 3000 nM	–	–	103.9 °C	–	–	–	–	CC(C)c1ncc(-c2ccc(Nc3cccc4cn(CC(F)(F)F)nc34)cc2)o1 [Compound 48, N-[4-[2-(1-methylethyl)-5-oxazolyl]phenyl]-2-(2,2,2-trifluoroethyl)-2H-indazol-7-amine]
